Reference: patent US11006626B2, “Compounds for protection of cells” (Sulfateq B.V., priority 2012, dated 2021)

What was measured:
apherese blood platelets [1] = experiment: Apheresis platelets stored with Sul 136, platelet aggregation (Platelet Aggregation Profiler PAP 8); assay type: cell-based; conditions: for Platelet aggregation ADP (%) / Platelet aggregation Collagen (%): stored at 4° C. with Sul 136
Protocol: (§1) 300 μM suspension of Sul 136 is added with a procedure, which keeps the bag content sterile and the Sul 136 is kept in suspension by frequent whirling and stored at 37° C. before it is added to the freshly harvested platelets. The Sul 136 suspension is added to three platelet bags directly from the bag. After addition, the content of the platelet bag is gently mixed. After 2 hours the first sample is drawn with a seal-docked sample bag. The sample bag is disconnected by welding and from this sample bag the samples are taken for hematology analyzing, aggregometer tests and the flow-cytometry tests. Swirling in the bag is reported by experience of the laboratory worker in the standard format. Platelets without Sul 136 put on a flatbed shaker and stored at room temperature were used as control. Another control is stored at 4° C. Platelet samples in which Sul 136 is added, are stored without shaking in a refrigerator at 4° C.
Platelet aggregation was measured according to Platelet Aggregation Profiler PAP 8 (Mölab) using all reagents from Mölab.
3 ml platelet concentrate was centrifuged at 3000 RPM to get PPP. 1800 μl PPP and 600 μl PRP were mixed.
225 μl PRP was brought in test tube with magnetic stirrer. 225 μl PPP+25 μl aquadest was brought in test tube without magnetic stirrer. PPP was used for basis. PRP was put during 2 min at 37° C. on a roller. Measurement with PRP in aggregometer was started after 30 seconds with 25 μl inductor. Measurement was performed during 6 min.

apherese blood platelets [2] = experiment: Apheresis platelets stored with Sul 136, Annexin V test by flow cytometry; assay type: cell-based; conditions: stored at 4° C. with Sul 136
Protocol: as §1
On a Beckman Coulter FC 500 flow cytometer using the Roche Annexin-V FLUOS Staining Kit
A mix of 20 μl Annexin-V fluorescein from Roche kit into 1 ml incubation buffer was made and 20 μl propidium iodide solution was added. 2 ml of platelet concentrate was centrifuged on standard Eppendorf centrifuge and the supernatant was discarded.
1 ml PBS buffer was added and cell concentration was checked whether it was around 1.000.000. This was diluted 100 times with the prepared Annexin-V fluorescein and propidium iodide mix and incubated for 15 minutes. 500 μl incubation buffer from kit was added and cell analysis was made in a flowcytometer.

Cc1c(C)c2c(c(C)c1O)CCC(C)(C(=O)N1CCN(CC(=O)O)CC1)O2 (racemic) [SUL - 136, 2-(4-(6-hydroxy-2,5,7,8-tetramethylchroman-2-carbonyl)piperazin-1-yl)acetic acid]
Platelet aggregation ADP (%) (apherese blood platelets [1]; Donor 2, Day 1): 0%
Platelet aggregation Collagen (%) (apherese blood platelets [1]; Donor 2, Day 1): 0%
Platelet aggregation ADP (%) (apherese blood platelets [1]; Donor 2, Day 2): 0%
Platelet aggregation Collagen (%) (apherese blood platelets [1]; Donor 2, Day 2): 0%
Platelet aggregation ADP (%) (apherese blood platelets [1]; Donor 2, Day 3): 0%
Platelet aggregation Collagen (%) (apherese blood platelets [1]; Donor 2, Day 3): 4%
Platelet aggregation ADP (%) (apherese blood platelets [1]; Donor 2, Day 5): 0%
Platelet aggregation Collagen (%) (apherese blood platelets [1]; Donor 2, Day 5): 0%
Platelet aggregation ADP (%) (apherese blood platelets [1]; Donor 2, Day 8): 0%
Platelet aggregation Collagen (%) (apherese blood platelets [1]; Donor 2, Day 8): 0%
Platelet aggregation ADP (%) (apherese blood platelets [1]; Donor 2, Day 10): 0%
Platelet aggregation Collagen (%) (apherese blood platelets [1]; Donor 2, Day 10): 0%
Platelet aggregation ADP (%) (apherese blood platelets [1]; Donor 2, Day 12): 0%
Platelet aggregation Collagen (%) (apherese blood platelets [1]; Donor 2, Day 12): 5%
Platelet aggregation ADP (%) (apherese blood platelets [1]; Donor 2, Day 19): 0%
Platelet aggregation Collagen (%) (apherese blood platelets [1]; Donor 2, Day 19): 0%
Platelet aggregation ADP (%) (apherese blood platelets [1]; Donor 3, Day 1): 0%
Platelet aggregation Collagen (%) (apherese blood platelets [1]; Donor 3, Day 1): 0%
Platelet aggregation ADP (%) (apherese blood platelets [1]; Donor 3, Day 2): 0%
Platelet aggregation Collagen (%) (apherese blood platelets [1]; Donor 3, Day 2): 0%
Platelet aggregation ADP (%) (apherese blood platelets [1]; Donor 3, Day 3): 0%
Platelet aggregation Collagen (%) (apherese blood platelets [1]; Donor 3, Day 3): 0%
Platelet aggregation ADP (%) (apherese blood platelets [1]; Donor 3, Day 5): 6%
Platelet aggregation Collagen (%) (apherese blood platelets [1]; Donor 3, Day 5): 0%
Platelet aggregation ADP (%) (apherese blood platelets [1]; Donor 3, Day 8): 0%
Platelet aggregation Collagen (%) (apherese blood platelets [1]; Donor 3, Day 8): 0%
Platelet aggregation ADP (%) (apherese blood platelets [1]; Donor 3, Day 10): 0%
Platelet aggregation Collagen (%) (apherese blood platelets [1]; Donor 3, Day 10): 0%
Platelet aggregation ADP (%) (apherese blood platelets [1]; Donor 3, Day 12): 0%
Platelet aggregation Collagen (%) (apherese blood platelets [1]; Donor 3, Day 12): 8%
Platelet aggregation ADP (%) (apherese blood platelets [1]; Donor 3, Day 19): 0%
Platelet aggregation Collagen (%) (apherese blood platelets [1]; Donor 3, Day 19): 0%
platelet aggregation upon stimulation with collagen and ADP (apherese blood platelets [1]; donor 1, day 12 and day 19, stored at 4° C.): restored
Platelet aggregation ADP (%) (apherese blood platelets [1]; donor 1, Day 1): 0%
Platelet aggregation Collagen (%) (apherese blood platelets [1]; donor 1, Day 1): 0%
Platelet aggregation ADP (%) (apherese blood platelets [1]; donor 1, Day 2): 0%
Platelet aggregation Collagen (%) (apherese blood platelets [1]; donor 1, Day 2): 0%
Platelet aggregation ADP (%) (apherese blood platelets [1]; donor 1, Day 3): 0%
Platelet aggregation Collagen (%) (apherese blood platelets [1]; donor 1, Day 3): 0%
Platelet aggregation ADP (%) (apherese blood platelets [1]; donor 1, Day 5): 0%
Platelet aggregation Collagen (%) (apherese blood platelets [1]; donor 1, Day 5): 0%
Platelet aggregation ADP (%) (apherese blood platelets [1]; donor 1, Day 8): 0%
Platelet aggregation Collagen (%) (apherese blood platelets [1]; donor 1, Day 8): 0%
Platelet aggregation ADP (%) (apherese blood platelets [1]; donor 1, Day 10): 0%
Platelet aggregation Collagen (%) (apherese blood platelets [1]; donor 1, Day 10): 0%
Platelet aggregation ADP (%) (apherese blood platelets [1]; donor 1, Day 12): 12%
Platelet aggregation Collagen (%) (apherese blood platelets [1]; donor 1, Day 12): 17%
Platelet aggregation ADP (%) (apherese blood platelets [1]; donor 1, Day 19): 31%
Platelet aggregation Collagen (%) (apherese blood platelets [1]; donor 1, Day 19): 32%
Annexin (% positive) (apherese blood platelets [2]; Donor 2, Day 1): 5.98%
Annexin (% positive) (apherese blood platelets [2]; Donor 2, Day 2): 10.96%
Annexin (% positive) (apherese blood platelets [2]; Donor 2, Day 3): 19.56%
Annexin (% positive) (apherese blood platelets [2]; Donor 2, Day 5): 32.11%
Annexin (% positive) (apherese blood platelets [2]; Donor 2, Day 8): 45.71%
Annexin (% positive) (apherese blood platelets [2]; Donor 2, Day 10): 53.96%
Annexin (% positive) (apherese blood platelets [2]; Donor 2, Day 12): 62.97%
Annexin (% positive) (apherese blood platelets [2]; Donor 2, Day 19): 72.67%
Annexin (% positive) (apherese blood platelets [2]; Donor 3, Day 1): 5.14%
Annexin (% positive) (apherese blood platelets [2]; Donor 3, Day 2): 8.68%
Annexin (% positive) (apherese blood platelets [2]; Donor 3, Day 3): 14.34%
Annexin (% positive) (apherese blood platelets [2]; Donor 3, Day 5): 27.77%
Annexin (% positive) (apherese blood platelets [2]; Donor 3, Day 8): 41.97%
Annexin (% positive) (apherese blood platelets [2]; Donor 3, Day 10): 62.65%
Annexin (% positive) (apherese blood platelets [2]; Donor 3, Day 12): 70.33%
Annexin (% positive) (apherese blood platelets [2]; Donor 3, Day 19): 80.99%
Annexin (% positive) (apherese blood platelets [2]; donor 1, Day 1): 4.51%
Annexin (% positive) (apherese blood platelets [2]; donor 1, Day 2): 14.48%
Annexin (% positive) (apherese blood platelets [2]; donor 1, Day 3): 18.24%
Annexin (% positive) (apherese blood platelets [2]; donor 1, Day 5): 20.38%
Annexin (% positive) (apherese blood platelets [2]; donor 1, Day 8): 34.56%
Annexin (% positive) (apherese blood platelets [2]; donor 1, Day 10): 43.52%
Annexin (% positive) (apherese blood platelets [2]; donor 1, Day 12): 56.91%
Annexin (% positive) (apherese blood platelets [2]; donor 1, Day 19): 88.34%
